# Calls of active or inactive are those of the source. The rule behind the calls is not given here.
# Assays:
# [1] = molecular target: T1, STE20-like serine/threonine-protein kinase (Homo sapiens, UniProt Q9H2G2); test: Binding affinity to wild-type human partial length SLK (S14 to A307 residues) expressed in bacterial expression system assessed as residual binding level at 10 uM by Kinomescan method
# [2] = molecular target: Epidermal growth factor receptor (Homo sapiens, UniProt P00533); test: Inhibition of human N-terminal GST-tagged EGFR (696 to 1022 residues) expressed in Sf21 insect cells by HTRF assay
# Chain of Epidermal growth factor receptor (Homo sapiens, UniProt P00533) (P00533 whole entry, the tested form may be a part): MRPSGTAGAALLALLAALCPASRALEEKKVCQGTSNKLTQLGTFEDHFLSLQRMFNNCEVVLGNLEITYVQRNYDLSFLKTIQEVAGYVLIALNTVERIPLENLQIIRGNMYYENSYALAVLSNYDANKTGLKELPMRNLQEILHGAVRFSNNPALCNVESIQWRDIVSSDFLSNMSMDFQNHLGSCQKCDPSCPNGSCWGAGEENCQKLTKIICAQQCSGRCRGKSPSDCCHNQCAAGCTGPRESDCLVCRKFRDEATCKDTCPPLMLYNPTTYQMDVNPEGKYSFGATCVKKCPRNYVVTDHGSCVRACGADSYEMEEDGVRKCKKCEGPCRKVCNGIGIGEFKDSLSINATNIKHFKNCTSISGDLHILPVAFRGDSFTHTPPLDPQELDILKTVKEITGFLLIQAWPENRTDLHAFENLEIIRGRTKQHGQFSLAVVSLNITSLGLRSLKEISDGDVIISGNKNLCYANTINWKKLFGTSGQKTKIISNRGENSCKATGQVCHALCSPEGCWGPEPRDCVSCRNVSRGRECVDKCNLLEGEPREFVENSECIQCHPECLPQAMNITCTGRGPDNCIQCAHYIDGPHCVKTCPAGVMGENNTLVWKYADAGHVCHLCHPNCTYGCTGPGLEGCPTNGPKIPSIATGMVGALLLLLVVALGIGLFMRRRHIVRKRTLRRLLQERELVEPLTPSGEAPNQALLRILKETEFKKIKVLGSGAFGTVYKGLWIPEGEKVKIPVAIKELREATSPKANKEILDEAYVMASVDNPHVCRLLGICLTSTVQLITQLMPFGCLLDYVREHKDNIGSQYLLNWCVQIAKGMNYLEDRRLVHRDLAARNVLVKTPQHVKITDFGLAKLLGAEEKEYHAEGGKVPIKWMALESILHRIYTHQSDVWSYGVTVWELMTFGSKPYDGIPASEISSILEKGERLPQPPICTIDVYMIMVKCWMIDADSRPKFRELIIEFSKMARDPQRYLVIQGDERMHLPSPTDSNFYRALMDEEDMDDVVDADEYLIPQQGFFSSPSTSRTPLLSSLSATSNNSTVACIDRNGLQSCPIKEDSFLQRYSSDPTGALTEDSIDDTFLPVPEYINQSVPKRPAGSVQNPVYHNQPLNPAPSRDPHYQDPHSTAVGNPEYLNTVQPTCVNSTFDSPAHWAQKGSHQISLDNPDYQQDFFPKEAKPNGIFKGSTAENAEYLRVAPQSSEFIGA
# [3] = test system: Epidermal growth factor receptor (Homo sapiens), P00533 [L858R,T790M]; test: Allosteric inhibition of human N-terminal GST-tagged EGFR double T790M/L858R mutant (696 to 1022 residues) expressed in Sf21 insect cells assessed as change in inhibition rate in presence of 1 to 1000 uM ATP by HTRF assay
# [4] = molecular target: Mast/stem cell growth factor receptor Kit (Homo sapiens, UniProt P10721, V559D/V654A); test: Inhibition of recombinant human His-tagged KIT V559D/V654A double mutant expressed in baculovirus expression system at 10 uM by kinomescan assay
# [5] = molecular target: Epidermal growth factor receptor (Homo sapiens, UniProt P00533, L858R/T790M); test: Inhibition of human N-terminal GST-tagged EGFR double T790M/L858R mutant (696 to 1022 residues) expressed in Sf21 insect cells by HTRF assay
# [6] = molecular target: Epidermal growth factor receptor (Homo sapiens, UniProt P00533, L858R); test: Inhibition of human N-terminal GST-tagged EGFR L858R mutant (696 to 1022 residues) expressed in Sf21 insect cells by HTRF assay
# Chain of Epidermal growth factor receptor (Homo sapiens, UniProt P00533, L858R) (P00533 25-1210 L858R limits assumed): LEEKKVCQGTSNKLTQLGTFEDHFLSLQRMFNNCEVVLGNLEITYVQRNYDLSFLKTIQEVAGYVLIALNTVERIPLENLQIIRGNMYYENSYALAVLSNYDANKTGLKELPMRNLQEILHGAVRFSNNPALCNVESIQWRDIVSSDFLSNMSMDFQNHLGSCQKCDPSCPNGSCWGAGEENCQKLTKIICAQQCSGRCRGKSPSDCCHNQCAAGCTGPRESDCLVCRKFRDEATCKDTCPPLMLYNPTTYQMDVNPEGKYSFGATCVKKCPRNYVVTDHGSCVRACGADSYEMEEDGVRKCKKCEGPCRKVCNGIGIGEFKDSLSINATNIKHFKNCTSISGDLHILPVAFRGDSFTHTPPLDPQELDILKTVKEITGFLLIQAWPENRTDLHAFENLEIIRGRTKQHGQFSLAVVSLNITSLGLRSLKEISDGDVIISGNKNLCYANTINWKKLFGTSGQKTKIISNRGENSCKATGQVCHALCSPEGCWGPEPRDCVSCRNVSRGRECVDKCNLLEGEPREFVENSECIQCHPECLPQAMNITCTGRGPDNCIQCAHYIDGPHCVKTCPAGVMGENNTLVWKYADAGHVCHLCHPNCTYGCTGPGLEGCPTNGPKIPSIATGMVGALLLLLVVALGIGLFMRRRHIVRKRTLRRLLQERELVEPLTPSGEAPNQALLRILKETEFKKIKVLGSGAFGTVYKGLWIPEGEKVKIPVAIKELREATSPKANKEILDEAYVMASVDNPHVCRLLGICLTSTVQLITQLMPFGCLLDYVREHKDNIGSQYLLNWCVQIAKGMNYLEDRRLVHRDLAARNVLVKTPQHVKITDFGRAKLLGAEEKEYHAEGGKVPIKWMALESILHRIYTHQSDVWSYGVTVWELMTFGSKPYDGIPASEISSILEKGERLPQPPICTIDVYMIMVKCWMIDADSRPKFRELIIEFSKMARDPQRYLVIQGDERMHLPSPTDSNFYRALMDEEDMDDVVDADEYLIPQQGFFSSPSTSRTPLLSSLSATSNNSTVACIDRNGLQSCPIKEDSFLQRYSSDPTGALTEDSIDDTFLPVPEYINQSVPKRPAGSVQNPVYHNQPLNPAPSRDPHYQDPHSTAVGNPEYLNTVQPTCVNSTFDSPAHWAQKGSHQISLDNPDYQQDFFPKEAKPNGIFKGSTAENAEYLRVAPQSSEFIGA
# [7] = molecular target: T1, STE20-like serine/threonine-protein kinase; test: Inhibition of tracer 236 binding to recombinant full length human GST-tagged SLK expressed in baculovirus expression system measured after 60 mins by Lanthascreen assay relative to control
# [8] = molecular target: Epidermal growth factor receptor (Homo sapiens, UniProt P00533, C797S/L858R/T790M); test: Inhibition of human N-terminal GST-tagged EGFR triple T790M/L858R/C797S mutant (696 to 1022 residues) expressed in Sf21 insect cells by HTRF assay
# Chain of Epidermal growth factor receptor (Homo sapiens, UniProt P00533, C797S/L858R/T790M) (P00533 25-1210 T790M/C797S/L858R limits assumed): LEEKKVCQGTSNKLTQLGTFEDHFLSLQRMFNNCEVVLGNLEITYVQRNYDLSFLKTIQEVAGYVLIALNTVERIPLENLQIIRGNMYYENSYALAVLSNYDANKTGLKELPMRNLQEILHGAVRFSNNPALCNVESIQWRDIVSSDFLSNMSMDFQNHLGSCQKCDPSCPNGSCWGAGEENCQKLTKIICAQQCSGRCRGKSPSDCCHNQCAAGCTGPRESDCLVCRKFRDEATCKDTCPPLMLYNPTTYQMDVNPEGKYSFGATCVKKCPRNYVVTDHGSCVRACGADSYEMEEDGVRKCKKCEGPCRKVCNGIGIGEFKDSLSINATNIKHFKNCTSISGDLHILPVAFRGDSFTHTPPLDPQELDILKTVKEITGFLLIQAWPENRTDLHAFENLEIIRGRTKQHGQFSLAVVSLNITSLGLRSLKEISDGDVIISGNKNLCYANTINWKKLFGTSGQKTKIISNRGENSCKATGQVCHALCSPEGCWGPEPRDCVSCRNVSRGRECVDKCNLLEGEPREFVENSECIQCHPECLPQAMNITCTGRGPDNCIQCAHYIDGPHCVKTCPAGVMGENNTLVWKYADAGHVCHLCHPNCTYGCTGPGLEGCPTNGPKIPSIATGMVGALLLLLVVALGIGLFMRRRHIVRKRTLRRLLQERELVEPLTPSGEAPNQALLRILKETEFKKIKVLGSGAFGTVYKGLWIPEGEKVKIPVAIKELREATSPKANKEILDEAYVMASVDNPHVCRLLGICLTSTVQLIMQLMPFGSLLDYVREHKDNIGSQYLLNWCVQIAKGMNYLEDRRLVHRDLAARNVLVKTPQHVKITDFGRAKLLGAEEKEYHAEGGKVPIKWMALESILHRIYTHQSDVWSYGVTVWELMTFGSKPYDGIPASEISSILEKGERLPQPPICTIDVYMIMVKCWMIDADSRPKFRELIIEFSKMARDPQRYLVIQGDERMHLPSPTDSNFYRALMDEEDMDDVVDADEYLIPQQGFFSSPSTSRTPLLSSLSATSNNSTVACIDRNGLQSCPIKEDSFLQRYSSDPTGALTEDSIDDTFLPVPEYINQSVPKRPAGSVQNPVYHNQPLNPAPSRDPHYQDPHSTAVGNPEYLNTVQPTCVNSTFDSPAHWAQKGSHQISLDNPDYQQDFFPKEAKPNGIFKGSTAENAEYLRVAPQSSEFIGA
# T1 sequence (Q9H2G2 whole entry, the tested form may be a part): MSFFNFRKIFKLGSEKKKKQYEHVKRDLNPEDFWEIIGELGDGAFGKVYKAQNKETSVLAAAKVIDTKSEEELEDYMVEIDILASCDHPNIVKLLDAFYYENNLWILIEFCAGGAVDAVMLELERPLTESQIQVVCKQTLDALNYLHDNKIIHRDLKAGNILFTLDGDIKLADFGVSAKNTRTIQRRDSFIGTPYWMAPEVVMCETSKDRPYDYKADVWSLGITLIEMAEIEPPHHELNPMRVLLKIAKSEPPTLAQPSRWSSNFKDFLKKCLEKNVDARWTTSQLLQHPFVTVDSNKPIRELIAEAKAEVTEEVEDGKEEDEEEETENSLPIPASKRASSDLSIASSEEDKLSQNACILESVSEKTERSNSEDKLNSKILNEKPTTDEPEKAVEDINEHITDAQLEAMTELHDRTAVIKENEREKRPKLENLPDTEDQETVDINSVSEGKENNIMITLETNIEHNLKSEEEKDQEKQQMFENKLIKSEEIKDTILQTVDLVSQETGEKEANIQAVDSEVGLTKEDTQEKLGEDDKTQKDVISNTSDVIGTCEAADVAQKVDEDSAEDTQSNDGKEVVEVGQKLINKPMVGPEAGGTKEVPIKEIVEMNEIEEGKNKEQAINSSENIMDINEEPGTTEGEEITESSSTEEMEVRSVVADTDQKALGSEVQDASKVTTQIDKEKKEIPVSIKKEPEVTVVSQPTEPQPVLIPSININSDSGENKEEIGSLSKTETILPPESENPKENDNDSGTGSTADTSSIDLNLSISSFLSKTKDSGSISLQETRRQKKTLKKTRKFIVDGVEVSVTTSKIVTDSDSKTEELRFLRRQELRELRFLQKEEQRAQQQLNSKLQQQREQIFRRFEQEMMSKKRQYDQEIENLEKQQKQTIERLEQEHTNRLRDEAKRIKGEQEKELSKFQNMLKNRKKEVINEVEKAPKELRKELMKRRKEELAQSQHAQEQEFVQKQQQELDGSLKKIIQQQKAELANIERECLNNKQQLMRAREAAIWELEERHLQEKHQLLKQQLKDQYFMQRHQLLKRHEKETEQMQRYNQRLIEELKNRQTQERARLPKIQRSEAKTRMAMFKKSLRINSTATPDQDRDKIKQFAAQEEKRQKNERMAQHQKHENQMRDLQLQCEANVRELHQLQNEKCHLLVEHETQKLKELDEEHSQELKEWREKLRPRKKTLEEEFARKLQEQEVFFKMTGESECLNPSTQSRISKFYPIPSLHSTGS
Compound,Kd [1],IC50 [2],inhibition [3],Kd [4],IC50 [5],IC50 [6],IC50 [7],IC50 [8]
CN1CCN(c2ccc(Oc3ccc4c(c3)C(=O)N(Cc3ccccc3)c3cc(F)ccc3N4)cc2)CC1,> 10000 nM,> 1000 nM,inactive,> 10000 nM,11 nM,154 nM,> 10000 nM,13 nM
O=C1c2cc(-c3ccc(N4CCNCC4)cc3)ccc2Nc2ccc(F)cc2N1Cc1ccccc1,,> 1000 nM,,,31 nM,150 nM,,19 nM
